IC50 and EC50 data for 26 compounds are collected here from patent US10669272B2, “Substituted naphthyridinone compounds useful as T cell activators” (BRISTOL-MYERS SQUIBB COMPANY, priority 2018, dated 2020).

Like-named read-outs stand apart in the source and are kept apart here.

One assay addresses T1, human DGKα (Homo sapiens, UniProt P23743).
T1 construct: TVMV protease cleavage site (C); Hexa-His (C); made in house; host or cells: Sf9 insect cells (baculovirus, Bac-to-Bac)
As to the kind of experiment: DGKα LIPGLO assay (extruded liposome substrate), in vitro DGK inhibition. Format: biochemical. The settings on record: liposome (LIPGLO) assay; read-out: DGKa LIPGLO IC50.

The next assay has as its target T2, human DGKζ (Homo sapiens, UniProt Q13574).
T2 construct: TVMV protease cleavage site (C); Hexa-His (C); made in house; host or cells: Sf9 insect cells (baculovirus, Bac-to-Bac)
The experiment in a line: DGKζ LIPGLO assay (extruded liposome substrate), in vitro DGK inhibition. Type of assay: biochemical. As to conditions: liposome (LIPGLO) assay; read-out: DGKz LIPGLO IC50.

The subject of a further assay is Human venous whole blood. The experiment in a line: Human whole blood IFN-γ assay.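 Further: blood from healthy donors exposed to compound for 1 h before stimulation with anti-CD3 and anti-CD28 at 1 µg/mL each, IFN-γ quantified in supernatant by AlphaLISA.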 Type of assay: cell-based. The settings on record: human whole blood, normalized to 3 μM reference compound with anti-CD3 plus anti-CD28 as 100% activation, read-out: INFg Whole Blood Normalized Agonist EC50.

T2 sequence (Q13574 with tags, fused parts or gaps isoform Q13574-4): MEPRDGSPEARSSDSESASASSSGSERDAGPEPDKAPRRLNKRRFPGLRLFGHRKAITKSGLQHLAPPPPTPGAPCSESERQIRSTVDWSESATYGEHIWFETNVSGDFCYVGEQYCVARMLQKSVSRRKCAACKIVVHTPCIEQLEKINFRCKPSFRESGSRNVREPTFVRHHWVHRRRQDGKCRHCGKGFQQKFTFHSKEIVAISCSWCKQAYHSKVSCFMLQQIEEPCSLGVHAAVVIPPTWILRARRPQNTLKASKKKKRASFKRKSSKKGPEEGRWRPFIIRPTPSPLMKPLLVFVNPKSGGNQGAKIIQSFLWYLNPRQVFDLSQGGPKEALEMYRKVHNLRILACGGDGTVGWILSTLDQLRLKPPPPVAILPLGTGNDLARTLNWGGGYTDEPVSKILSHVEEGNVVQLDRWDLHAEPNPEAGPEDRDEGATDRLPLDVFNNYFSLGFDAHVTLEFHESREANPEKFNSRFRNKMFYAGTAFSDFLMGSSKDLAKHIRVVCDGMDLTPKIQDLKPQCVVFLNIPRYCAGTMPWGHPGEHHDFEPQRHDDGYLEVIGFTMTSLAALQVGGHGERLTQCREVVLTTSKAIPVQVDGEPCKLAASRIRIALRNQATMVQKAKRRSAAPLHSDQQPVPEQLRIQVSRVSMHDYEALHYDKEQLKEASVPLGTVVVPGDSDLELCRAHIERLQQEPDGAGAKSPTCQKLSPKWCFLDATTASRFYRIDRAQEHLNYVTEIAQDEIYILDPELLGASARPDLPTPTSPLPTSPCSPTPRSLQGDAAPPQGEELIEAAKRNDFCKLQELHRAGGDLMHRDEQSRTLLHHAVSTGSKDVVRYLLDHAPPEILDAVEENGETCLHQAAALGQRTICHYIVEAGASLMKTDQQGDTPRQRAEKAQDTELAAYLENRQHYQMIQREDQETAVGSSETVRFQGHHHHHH
T1 sequence (P23743 with tags, fused parts or gaps): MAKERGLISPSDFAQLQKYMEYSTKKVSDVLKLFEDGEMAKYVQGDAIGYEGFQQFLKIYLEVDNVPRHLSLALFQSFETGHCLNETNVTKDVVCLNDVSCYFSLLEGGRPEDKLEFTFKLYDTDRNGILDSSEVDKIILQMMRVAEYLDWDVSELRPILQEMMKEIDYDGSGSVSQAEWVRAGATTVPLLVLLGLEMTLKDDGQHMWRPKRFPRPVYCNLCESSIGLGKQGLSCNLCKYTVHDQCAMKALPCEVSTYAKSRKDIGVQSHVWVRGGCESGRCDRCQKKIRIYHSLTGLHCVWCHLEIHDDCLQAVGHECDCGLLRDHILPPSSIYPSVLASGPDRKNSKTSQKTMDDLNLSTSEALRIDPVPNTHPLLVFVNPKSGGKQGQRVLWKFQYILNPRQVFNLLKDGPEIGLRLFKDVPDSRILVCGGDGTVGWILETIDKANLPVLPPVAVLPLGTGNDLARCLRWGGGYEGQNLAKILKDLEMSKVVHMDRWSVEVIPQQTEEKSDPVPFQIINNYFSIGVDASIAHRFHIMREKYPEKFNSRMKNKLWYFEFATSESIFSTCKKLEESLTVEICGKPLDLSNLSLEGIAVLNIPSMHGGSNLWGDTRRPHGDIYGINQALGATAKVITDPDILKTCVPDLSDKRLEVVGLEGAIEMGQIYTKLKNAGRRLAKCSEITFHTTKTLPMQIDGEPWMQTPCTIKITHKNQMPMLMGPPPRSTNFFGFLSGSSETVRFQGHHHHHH
Procedure for Human venous whole blood: Human Whole Blood IFN-γ Assay
Human venous whole blood (22.5 μL per well), obtained from healthy donors, was pre-treated with compounds for one hour at 37° C. in a humidified 95% air/5% CO2 incubator. The blood was stimulated with 2.5 μL anti-human CD3 and anti-CD28 mAb at a final concentration of 1 μg/mL each for 24 hours at 37° C. IFN-γ in the supernatants was measured using AlphLISA kit (Cat # AL217).

As to `CC[C@@H]1CN(c2cc(=O)n(C)c3ccc(C#N)nc23)[C@@H](C)CN1C(C)c1ccc(OC)cc1` (single isomer, unassigned) [Example 1350], the IC50 at human DGKα was 97 nM; on human DGKζ, 11 nM. Besides, the EC50 in the assay with Human venous whole blood worked out at 30 nM.
The matching figures for `CC[C@@H]1CN(c2cc(=O)n(C)c3ccc(C#N)nc23)[C@@H](C)CN1C(C)c1ccc(OC)cc1` (single isomer, unassigned) [Example 1351]: 1100 nM, 780 nM and 740 nM.
Turning to `CC[C@@H]1CN(c2cc(=O)n(C)c3ccc(C#N)nc23)[C@@H](C)CN1C(C)c1ccc(Cl)cc1F` (single isomer, unassigned) [Example 1352], the half-inhibitory concentration (IC50) turned out to be 120 nM at human DGKα and 16 nM on human DGKζ. Also, in the assay on Human venous whole blood (Homo sapiens, 24 h), the EC50 amounted to 28 nM.
With `CC[C@H]1CN(C(C)c2ccc(C3CC3)cc2)[C@H](CC)CN1c1cc(=O)n(C)c2ccc(C#N)nc12` (single isomer, unassigned) [Example 1355], the half-inhibitory concentration (IC50) stood at 62 nM on human DGKα and 33 nM on human DGKζ. Moreover, in the assay on Human venous whole blood, the EC50 was determined as 28 nM.
In the same order, the values of `CC[C@H]1CN(C(C)c2ccc(C3CC3)cc2)[C@H](CC)CN1c1cc(=O)n(C)c2ccc(C#N)nc12` (single isomer, unassigned) [Example 1356] are 1900 nM, 3400 nM and 1300 nM.
`CC[C@H]1CN(C(C)c2ccc(C3CC3)cc2F)[C@H](CC)CN1c1cc(=O)n(C)c2ccc(C#N)nc12` (single isomer, unassigned) [Example 1358]: the IC50 on human DGKα amounted to 1700 nM; at human DGKζ it was 680 nM. Besides, in the assay with Human venous whole blood (Homo sapiens, 24 h), the EC50 stood at 1200 nM.
Turning to `CCC(c1ccc(C2CC2)cc1F)N1C[C@H](CC)N(c2cc(=O)n(C)c3ccc(C#N)nc23)C[C@H]1CC` (single isomer, unassigned) [Example 1359], the figures for the IC50 on human DGKα and on human DGKζ were 52 nM and 25 nM, respectively. In addition, the EC50 in the assay with Human venous whole blood came to 44 nM.
In the same order, the values of `CCC(c1ccc(C2CC2)cc1F)N1C[C@H](CC)N(c2cc(=O)n(C)c3ccc(C#N)nc23)C[C@H]1CC` (single isomer, unassigned) [Example 1360] are 830 nM, 110 nM and 700 nM.
The matching figures for `CC[C@H]1CN(C(C)c2ccc(C(F)(F)F)cc2F)[C@H](CC)CN1c1cc(=O)n(C)c2ccc(C#N)nc12` (single isomer, unassigned) [Example 1364]: 150 nM, 29 nM and 58 nM.
The matching figures for `CC[C@H]1CN(C(C)c2ccc(C(F)(F)F)cc2F)[C@H](CC)CN1c1cc(=O)n(C)c2ccc(C#N)nc12` (single isomer, unassigned) [Example 1365]: 480 nM, 480 nM and 2200 nM.
`CC[C@H]1CN(C(C)c2ccc(OC)cc2)[C@H](CC)CN1c1cc(=O)n(C)c2ccc(C#N)nc12` (single isomer, unassigned) [Example 1366]: the IC50 was 24 nM at human DGKα and 15 nM on human DGKζ. Also, in the assay on Human venous whole blood, the EC50 was 11 nM.
In the same order, the values of `CC[C@H]1CN(C(C)c2ccc(OC)cc2)[C@H](CC)CN1c1cc(=O)n(C)c2ccc(C#N)nc12` (single isomer, unassigned) [Example 1367] are 170 nM, 2900 nM and 1900 nM.
In the same order, the values of `CC[C@H]1CN(C(C)c2ccc3c(c2)OC(F)(F)O3)[C@H](CC)CN1c1cc(=O)n(C)c2ccc(C#N)nc12` (single isomer, unassigned) [Example 1368] are 330 nM, 34 nM and 63 nM.
In the same order, the values of `CC[C@H]1CN(C(C)c2ccc3c(c2)OC(F)(F)O3)[C@H](CC)CN1c1cc(=O)n(C)c2ccc(C#N)nc12` (single isomer, unassigned) [Example 1369] are 1400 nM, 750 nM and 1300 nM.
As for `CC[C@H]1CN(C(C)c2ccc(OC(F)(F)F)cc2F)[C@H](CC)CN1c1cc(=O)n(C)c2ccc(C#N)nc12` (single isomer, unassigned) [Example 1371], the IC50 on human DGKα is 21 nM; on human DGKζ it was 58 nM. Besides, the EC50 in the assay with Human venous whole blood amounted to 150 nM.
Regarding `CC[C@H]1CN(C(C)c2ccc(OC(F)(F)F)cc2F)[C@H](CC)CN1c1cc(=O)n(C)c2ccc(C#N)nc12` (single isomer, unassigned) [Example 1372], the figures for the IC50 on human DGKα and at human DGKζ were 460 nM and 1700 nM, respectively. The EC50 in the assay with Human venous whole blood was 1400 nM.
The matching figures for `CC[C@H]1CN(C(C)c2ccc(OC(F)F)cc2)[C@H](CC)CN1c1cc(=O)n(C)c2ccc(C#N)nc12` (single isomer, unassigned) [Example 1373]: 9.5 nM, 32 nM and 95 nM.
As for `CC[C@H]1CN(C(C)c2ccc(OC(F)F)cc2)[C@H](CC)CN1c1cc(=O)n(C)c2ccc(C#N)nc12` (single isomer, unassigned) [Example 1374], the results for the IC50 at human DGKα and at human DGKζ were 290 nM and 280 nM, respectively. Further, the EC50 in the assay on Human venous whole blood stood at 2700 nM.
Consider `CC(c1ccc(OC(F)F)cc1)N1C[C@H](C)N(c2c(C#N)c(=O)n(C)c3ccc(C#N)nc23)C[C@H]1C` (single isomer, unassigned) [Example 1375], for which the IC50 stood at 190 nM at human DGKα and 890 nM on human DGKζ. In the assay with Human venous whole blood (Homo sapiens, 24 h), the EC50 is 1800 nM.
`CCC(c1ccc(OC(F)(F)F)cc1F)N1C[C@H](CC)N(c2cc(=O)n(C)c3ccc(C#N)nc23)C[C@H]1C` (single isomer, unassigned) [Example 1377]: the IC50 on human DGKα stood at 29 nM; on human DGKζ, 270 nM. Further, the EC50 in the assay with Human venous whole blood was found to be 2000 nM.
Consider `CCC(c1ccc(OC(F)(F)F)cc1F)N1C[C@H](CC)N(c2cc(=O)n(C)c3ccc(C#N)nc23)C[C@H]1C` (single isomer, unassigned) [Example 1378], for which the IC50 at human DGKα amounted to 1400 nM; on human DGKζ it was 2800 nM. In addition, the EC50 in the assay with Human venous whole blood is 9500 nM.
In the same order, the values of `CC[C@H]1CN(C(C)c2ccc(OC(F)F)cc2)[C@H](C)CN1c1cc(=O)n(C)c2ccc(C#N)nc12` (single isomer, unassigned) [Example 1379] are 8.8 nM, 160 nM and 510 nM.
Regarding `CCC(c1cc(OC(F)(F)F)ccc1F)N1C[C@H](CC)N(c2cc(=O)n(C)c3ccc(C#N)nc23)C[C@H]1C` (single isomer, unassigned) [Example 1380], the IC50 at human DGKα worked out at 850 nM; on human DGKζ it was 180 nM. Also, the 50% effective concentration (EC50) in the assay on Human venous whole blood stood at 470 nM.
In the same order, the values of `CCC(c1cc(OC(F)(F)F)ccc1F)N1C[C@H](CC)N(c2cc(=O)n(C)c3ccc(C#N)nc23)C[C@H]1C` (single isomer, unassigned) [Example 1381] are 19000 nM, 2100 nM and 20000 nM.
Regarding `CC[C@H]1CN(C(C)c2cc(F)c(F)c(F)c2)[C@H](C)CN1c1cc(=O)n(C)c2ccc(C#N)nc12` (single isomer, unassigned) [Example 1383], the half-maximal inhibitory concentration (IC50) is 970 nM at human DGKα and 480 nM at human DGKζ. In addition, the EC50 with Human venous whole blood (Homo sapiens, 24 h) worked out at 7000 nM.
In the case of `CC(c1ccc(OC(F)(F)F)cc1)N1C[C@H](C)N(c2cc(=O)n(C)c3ccc(C#N)nc23)C[C@H]1CO` (single isomer, unassigned) [Example 1386], the half-maximal inhibitory concentration (IC50) at human DGKα was 140 nM; at human DGKζ, 2200 nM. Further, in the assay with Human venous whole blood, the EC50 is 3900 nM.

One may read the IC50 as the concentration that gives 50% inhibition. The EC50 is the concentration that produces a half-maximal response.
